Test results as given in PMC3280276 (PLoS ONE, 2012).

Tested on: C-terminal peptide […]
Assay type: binding

saporin
interaction with C-terminal peptide […]: did not observe any measurable interactions
